Measured values reported in PMC9151520 (Archives of Toxicology, 2022).
pEC50: −log10 of the molar value. “And” between values parts separate entries of the source, which are not always exact repeats. Equal entries are not always repeated. Where two headings read alike, the source gives them in different places.

How the values were obtained:
[1] = test system: p53 signaling (p53RE-bla HCT-116 cells)
[2] = test system: p53 signaling (p53RE-bla HCT-116 cells); remark: listed apart in the source
[3] = test system: p53 signaling (p53RE-bla HCT-116 cells); assay: cells; type: cell-based
[4] = Homo sapiens, HCT-116, read-out: p53 activation efficacy, primary screening
[5] = read-out: p53 activation EC50, cherry pick confirmation
[6] = read-out: p53 activation EC50, primary screening
[7] = Homo sapiens, HCT-116, read-out: EC50, p53 activation, primary screening
[8] = Homo sapiens, HCT-116, read-out: Efficacy, p53 activation, primary screening
[9] = Homo sapiens, HCT-116, read-out: EC50, p53 activation, cherry pick confirmation
[10] = Homo sapiens, HCT-116, read-out: Efficacy, p53 activation, cherry pick confirmation
[11] = Homo sapiens, HCT-116, read-out: p53 activation EC50, cherry pick confirmation
[12] = Homo sapiens, HCT-116, read-out: p53 activation EC50, primary screening
[13] = Homo sapiens, HCT-116, read-out: p53 activation efficacy, cherry pick confirmation

Row | Compound | p53 activation EC50, cherry pick confirmation [1] | p53 activation EC50, primary screening [1] | p53 activation efficacy, cherry pick confirmation [1] | p53 activation efficacy, primary screening [1] | p53 activation EC50, cherry pick confirmation [2] | p53 activation EC50, primary screening [2] | p53 activation efficacy, cherry pick confirmation [2] | p53 activation efficacy, primary screening [2] | Viability EC50, cherry pick confirmation (p53RE-bla HCT-116 cells) | Viability EC50, primary screening (p53RE-bla HCT-116 cells) | Viability efficacy, cherry pick confirmation (p53RE-bla HCT-116 cells) | Viability efficacy, primary screening (p53RE-bla HCT-116 cells) | EC50, p53 activation, cherry pick confirmation [1] | EC50, p53 activation, primary screening [1] | Efficacy, p53 activation, cherry pick confirmation [1] | Efficacy, p53 activation, primary screening [1] | EC50, p53 activation, cherry pick confirmation [2] | EC50, p53 activation, primary screening [2] | Efficacy, p53 activation, cherry pick confirmation [2] | Efficacy, p53 activation, primary screening [2] | other results
1 | CC/C(=C(/CC)c1ccc(O)cc1)c1ccc(O)cc1 [Diethylstilbestrol] | inactive | inactive | inactive | inactive | inactive | inactive | inactive | inactive | inactive | inactive | inactive | – | – | – | – | – | – | – | – | – | p53 activation EC50, cherry pick confirmation [3]: inactive; p53 activation efficacy, cherry pick confirmation [3]: inactive; Emax [3, 4]: 42.5%
2 | Cl.Nc1ccn([C@@H]2O[C@H](CO)[C@@H](O)C2(F)F)c(=O)n1 | inactive | inactive | inactive | inactive | inactive | inactive | inactive | inactive | inactive | inactive | inactive | inactive | – | – | – | – | – | – | – | – | p53 activation efficacy, cherry pick confirmation [3]: 111.507; p53 activation efficacy, primary screening [3]: 94.321; pEC50 [3, 5]: 6.69; pEC50 [3, 6]: 6.76
3 | Oc1ccc(-c2ccc(O)cc2)cc1 [4,4'-Biphenyldiol] | – | – | – | – | – | – | – | – | – | – | – | – | inactive | inactive | inactive | inactive | inactive | inactive | inactive | inactive | EC50, p53 activation, cherry pick confirmation [3]: inactive; Efficacy, p53 activation, cherry pick confirmation [3]: inactive; pEC50 [3, 7]: 4.45; Emax [3, 8]: 48.2%; EC50, viability, cherry pick confirmation (p53RE-bla HCT-116 cells): inactive; EC50, viability, primary screening (p53RE-bla HCT-116 cells): inactive; Efficacy, viability, cherry pick confirmation (p53RE-bla HCT-116 cells): inactive; Efficacy, viability, primary screening (p53RE-bla HCT-116 cells): inactive
4 | O=C(Nc1cccc(C(F)(F)F)c1)c1cc(Br)cc(Br)c1O [Fluorosalan] | – | – | – | – | – | – | – | – | – | – | – | – | inactive | inactive | inactive | inactive | inactive | inactive | inactive | inactive | pEC50 [3, 9]: 4.56; pEC50 [3, 7]: 4.76; Emax [3, 10]: 47.5%; Emax [3, 8]: 33.3%; EC50, viability, cherry pick confirmation (p53RE-bla HCT-116 cells): inactive; EC50, viability, primary screening (p53RE-bla HCT-116 cells): inactive; Efficacy, viability, cherry pick confirmation (p53RE-bla HCT-116 cells): inactive; Efficacy, viability, primary screening (p53RE-bla HCT-116 cells): inactive
5 | CC(C)(C)C(=O)OCOP(=O)(COCCn1cnc2c(N)ncnc21)OCOC(=O)C(C)(C)C [Adefovir dipivoxil] | inactive | inactive | inactive | inactive | inactive | inactive | inactive | inactive | inactive | inactive | inactive | inactive | – | – | – | – | – | – | – | – | pEC50 [3, 11]: 5.83; pEC50 [3, 12]: 5.29; Emax [3, 13]: 60.8%; Emax [3, 4]: 106%
6 | Cc1cc(C2CCCCC2)n(O)c(=O)c1 [Ciclopirox olamine] | – | – | – | – | – | – | – | – | – | – | – | – | inactive | inactive | inactive | inactive | inactive | inactive | inactive | inactive | pEC50 [3, 9]: 4.58; pEC50 [3, 7]: 4.79; Emax [3, 10]: 57.2%; Emax [3, 8]: 26%; EC50, viability, cherry pick confirmation (p53RE-bla HCT-116 cells): inactive; EC50, viability, primary screening (p53RE-bla HCT-116 cells): inactive; Efficacy, viability, cherry pick confirmation (p53RE-bla HCT-116 cells): inactive; Efficacy, viability, primary screening (p53RE-bla HCT-116 cells): inactive
7 | COc1cccc2c1cc([N+](=O)[O-])c1c(C(=O)[O-])cc3c(c12)OCO3.[Na+] [Sodium aristolochate-I] | – | – | – | – | – | – | – | – | – | – | – | – | inactive | inactive | inactive | inactive | inactive | inactive | inactive | inactive | EC50, p53 activation, cherry pick confirmation [3]: inactive; Efficacy, p53 activation, cherry pick confirmation [3]: inactive; Efficacy, p53 activation, primary screening [3]: 50.4333; pEC50 ([3]; read-out: EC50, p53 activation, primary screening): 5.44; EC50, viability, cherry pick confirmation (p53RE-bla HCT-116 cells): inactive; EC50, viability, primary screening (p53RE-bla HCT-116 cells): inactive; Efficacy, viability, primary screening (p53RE-bla HCT-116 cells): inactive; pEC50 (p53RE-bla HCT-116 cells; read-out: EC50, viability, cherry pick confirmation): 5.01
8 | Oc1ccc(C2(c3ccc(O)cc3)c3ccccc3-c3ccccc32)cc1 [4,4'-(9H-Fluorene-9,9-diyl)diphenol] | inactive | inactive | inactive | inactive | inactive | inactive | inactive | inactive | – | inactive | – | – | – | – | – | – | – | – | – | – | p53 activation efficacy, cherry pick confirmation [3]: 169.95; p53 activation efficacy, primary screening [3]: 157.361; pEC50 [3, 5]: 4.35; pEC50 [3, 6]: 4.32; pEC50 (p53RE-bla HCT-116 cells; read-out: Viability EC50, cherry pick confirmation): 4.46 and 4.49 and 4.34; pEC50 (p53RE-bla HCT-116 cells; read-out: Viability EC50, primary screening): 4.31
9 | CCCSP(=S)(OCC)Oc1ccc(SC)cc1 (stereo not drawn) [Sulprofos] | inactive | – | – | – | – | – | – | – | inactive | inactive | inactive | inactive | – | – | – | – | – | – | – | – | pEC50 [2, 5]: 5.16; p53 activation EC50, cherry pick confirmation [3]: inactive; p53 activation EC50, primary screening [3]: inactive; p53 activation efficacy, cherry pick confirmation [3]: inactive; p53 activation efficacy, primary screening [3]: inactive
10 | CC1=C(C(=O)Nc2ccccc2)S(=O)(=O)CCO1 [Oxycarboxin] | inactive | inactive | inactive | inactive | inactive | inactive | inactive | inactive | inactive | inactive | inactive | inactive | – | – | – | – | – | – | – | – | pEC50 [3, 11]: 4.44; pEC50 [3, 12]: 4.67; Emax [3, 13]: 82.6%; Emax [3, 4]: 76%
11 | CC(CN1CC(=O)NC(=O)C1)N1CC(=O)NC(=O)C1 (stereo not drawn) [Razoxane] | inactive | inactive | inactive | inactive | inactive | inactive | inactive | inactive | inactive | inactive | inactive | inactive | – | – | – | – | – | – | – | – | pEC50 [3, 11]: 4.68; pEC50 [3, 12]: 4.94; Emax [3, 13]: 31.9%; Emax [3, 4]: 60.2%
12 | CC(=O)O[C@@H]1C(=O)O[C@H]2[C@@H]1OC(=O)[C@@H]2OC(C)=O [Aceglatone] | – | – | – | – | – | – | – | – | – | – | – | – | inactive | inactive | inactive | inactive | inactive | inactive | inactive | inactive | EC50, p53 activation, cherry pick confirmation [3]: inactive; Efficacy, p53 activation, cherry pick confirmation [3]: inactive; pEC50 [3, 7]: 4.67; Emax [3, 8]: 37.3%; EC50, viability, cherry pick confirmation (p53RE-bla HCT-116 cells): inactive; EC50, viability, primary screening (p53RE-bla HCT-116 cells): inactive; Efficacy, viability, cherry pick confirmation (p53RE-bla HCT-116 cells): inactive; Efficacy, viability, primary screening (p53RE-bla HCT-116 cells): inactive
